In patent US20230372374A1, “VETERINARY PHARMACEUTICAL FORMULATIONS” (INCREVET, INC., priority 2022, published 2023):
Converted amounts (≈) assume the structure as drawn.

How the values were obtained:
renal glucose reuptake [1] = assay: Urinary glucose excretion in cats after capsule dosing; type: in vivo, cat
Description: The pharmacodynamics of inhibitors of renal glucose reuptake can be easily monitored by measurement of urinary glucose excretion (UGE). The sodium-linked glucose transporters SGLT1 and SGLT2 are expressed in the second and first segments, respectively, (pars recta and pars convoluta) of the renal proximal tubule.
As described above, 4 laboratory cats were administered bexagliflozin as either a blend with microcrystalline cellulose or as pure bexagliflozin, in each case in gelatin capsules. Bexagliflozin induced a significant glucosuria in healthy cats. At 3 mg kg^−1, total urinary glucose excreted over a period of 24 hours was 4.78 g (Table 14). […] Glucosuria following test article administration in the fasted state was higher than glucosuria following administration in the fed state (Table 14, bottom row).

renal glucose reuptake [2] = assay: Urinary glucose excretion in cats after DEGEE/glycerol liquid formulations; type: in vivo, cat; conditions: daily oral DEGEE/glycerol liquid formulations F16D-V1 to F16D
Description: The pharmacodynamics produced by liquid formulations of bexagliflozin were also evaluated. Cats were fed daily with Whiskas Cat Food in Can (Ocean Fish) and bexagliflozin was delivered orally daily with different formulations derived from F16D as shown in Table 15.
Cats were dosed with F16D-V0 (0.1 mL kg^−1) for two days (vehicle control), and urine samples were collected on the second day for glucose excretion analysis. Similarly, cats were dosed daily with F16D-V1 (0.1 mL kg^−1) from Day 1 to Day 4 at 0.1 mg kg^−1 dose, and urine samples were collected from Day 2 to Day 4 for glucose excretion analysis; cats were dosed daily with F16D-V2 (0.1 mL kg^−1) from Day 5 to Day 8 at 0.3 mg kg^−1 dose, and urine samples were collected from Day 6 to Day 8 for glucose excretion analysis; cats were dosed daily with F16D-V3 (0.1 mL kg^−1) from Day 9 to Day 12 at 1 mg kg^−1 dose, and urine samples collected from Day 10 to Day 12 for glucose excretion analysis; and cats were dosed daily with F16D (0.1 mL kg^−1) from Day 13 to Day 16 at 3 mg kg^−1 dose, and urine samples were collected from Day 14 to Day 16 for glucose excretion analysis.
Urine samples were analyzed using a HITACHI 7600-010 automatic biochemistry analyzer. Urine glucose and creatinine concentrations were measured. […]

[3] = humans; cited from earlier work
[4] = Pharmacokinetics in cats after capsule dosing; type: in vivo, cat
Description: Capsules were evaluated using cohorts of four laboratory cats that were administered test article at multiple dose levels. The test article was prepared in size 4 gelatin capsules and administered by mouth to animals that had been fasted 12 h. The capsules were loaded with 5% bexagliflozin (w/w) in microcrystalline cellulose for the 0.1, 0.3 and 1.0 mg kg^−1 dose levels, and with bexagliflozin alone for the 3.0 and 10.0 mg kg^−1 dose levels. The cats were provided with food ad libitum 2 hours after dosing.
Blood samples were collected from the acral vein at the scheduled time points. Samples of 0.1 to 0.3 mL were drawn into 1.5 mL tubes containing dipotassium EDTA as an anticoagulant. The samples were immediately mixed by gently inverting the tube approximately 8 times. Immediately following mixing, the tubes were placed on crushed ice and kept chilled until centrifugation. Samples were centrifuged within 1 hour of collection. Following centrifugation, the tubes were returned to crushed ice and supernatants transferred into microcentrifuge tubes and frozen. The tubes were stored frozen in a −20° C. freezer at the testing facility prior to shipment for analysis. Plasma bexagliflozin concentration was measured by an LC-MS/MS method. Separations were performed using an Agilent 1200 equipped with a Thermo Betasil C18 50×2.1 mm, 5 μm packing column or a Phenomenex Gemini C18 50×4.5 mm, 5 μm packing column. Analyte detection was performed with an ABI 4000 or AB Sciex QTRAP 5500 mass spectrometer.
The volume of distribution was relatively large, ranging from 5.5 to 11.9 L kg^−1, with no dose-dependent trend. […] The majority of the variation in half-life was attributable to variation in the volume of distribution, and the clearance was relatively constant at 1.46±0.24 L h^−1 kg^−1. The AUC0-24 was proportional to dose over the entire dosing range and a linear regression with a constrained intercept of 0 ng h mL^−1 at 0 mg kg^−1 gave a slope of 762 ng h mL^−1 per mg kg^−1 of dose (FIG. 2).

renal glucose reuptake [5] = assay: Urinary glucose excretion in cats after tablet dosing; type: in vivo, cat; conditions: healthy cats, tablets, corrected for assay
Description: A dose range-finding study was conducted with tablets prepared using a polacrilex resin slurry process. For the evaluation of pharmacodynamics, animals were fed canned food, to promote a constant daily urine volume and proper collection of urine samples. Water was supplied ad libitum.
All animals were administered test article at each dose level. The 2.5 mg dose was delivered as half of one 5 mg tablet cleaved with a pill cutter. The 5 mg dose was delivered as one 5 mg tablet per cat, the 10 mg dose was delivered as one 10 mg tablet per cat and the 30 mg dose was delivered as two 15 mg tablets per cat. For the pharmacokinetics study, test articles were dosed after the sampling of blood at pre-dose (0 h) time point. For the pharmacodynamics study, test articles were administered daily at 9:00-9:30 for four consecutive days and urine excreted by the animals for the last three days (after the dose and before next dose) was collected.
Collections were performed for three days to diminish the consequences of day-to-day variation of urine excretion. […] For convenience in referring to dose levels, the nominal dosages are used in this report, but calculations of dose-response relationships in mg kg^−1 were based on the measured bexagliflozin content.
The pharmacodynamics elicited by bexagliflozin delivered by tablets was also evaluated. […]

[6] = Solubility of bexagliflozin in aqueous media; type: physicochemical; conditions: aqueous media at 37° C.

## OC[C@H]1O[C@@H](c2ccc(Cl)c(Cc3ccc(OCCOC4CC4)cc3)c2)[C@H](O)[C@@H](O)[C@@H]1O [Bexagliflozin, (2S,3R,4R,5S,6R)-2-(4-chloro-3-(4-(2-cyclopropoxyethoxy)benzyl)phenyl)-6-(hydroxymethyl)tetrahydro-2H-pyran-3,4,5-triol]
Renal glucose reuptake [1]; cats, capsule, 3 mg kg^−1
  total urinary glucose excreted over a period of 24 hours: 4.78 g
Renal glucose reuptake [1]; healthy cats, capsules
  ED50 of glucosuria: 0.56 mg/kg
Renal glucose reuptake [2]
  half-maximal dose (ED50) for daily glucose excretion: 0.383 mg/kg/day
Renal glucose reuptake [2]; 0.1 to 3 mg kg^−1
  maximum daily glucose excretion (predicted): 7854 mg
[3]
  hazard ratio for the reduction in major adverse cardiovascular events: 0.774
[4]; cats, capsules, linear regression with constrained intercept of 0
  slope of AUC0-24 versus dose: 762 ng h mL^−1 per mg kg^−1
[4]; in vivo, po
  Tmax: 0.6 to 1.2 h
  clearance: 24.3 ± 4 mL/min/kg
  half-life: 2.9 to 5.9 h
  volume of distribution: 5.5 to 11.9 L/kg
Renal glucose reuptake [5]
  ED50 for UGE: 0.505 mg/kg
[6]
  solubility: ~500 µg/mL (≈ 1080 µM)
